# Assay results published in patent US20220356163A1, “SMALL MOLECULE INHIBITORS OF Id PROTEINS” (MEMORIAL SLOAN KETTERING CANCER CENTER, priority 2019, published 2022).
# Legend:
# [1] = Concentration of AGX51 in the eyes after i.p. dosing; type: in vivo, mouse; details: 30 mg/kg i.p.
# Protocol: Pharmacokinetic analyses. To determine the pharmacokinetic parameters of AGX51, eight-week old male Balb/c mice (Taconic farms) were dosed once by i.p. injection with 30 mg/kg, 50 mg/kg or 100 mg/kg AGX51 prepared in 70% DMSO (n=3 mice per group). Another set of three mice was dosed with 100 mg/kg AGX51 prepared in 100% DMSO. Blood was collected at 30 minutes, 1 hour, 3 hours, 6 hours and 24 hours post AGX51 administration and plasma analyzed via LC-MS as per the protocol previously validated in the MSKCC Antitumor Assessment Core Facility. Following blood collection, the mice were sacrificed via CO2 asphyxiation and the eyes from the 30 mg/kg treatment group were collected and flash frozen for analysis. Data obtained from LC-MS was analyzed via WinNonLin software (version 8.1) for pharmacokinetic parameters.
# The concentration of AGX51 was thus measured in the eyes of mice dosed i.p. with 30 mg/kg AGX51 by mass spectrometry over 24 hours. […] The amount of AGX51 reaching the eye was well below the amount required by intraocular injection to show efficacy, which could be due to incomplete recovery from the extraction of dissected eyes or that effective dose ranges vary considerably with delivery route.
# [2] = biological target: T1, Id1 (59-104) (Mus musculus, UniProt P20067); assay: UV crosslinking of AGX51-XL2 to purified Id1 with mass spectrometry; type: binding; details: 10-fold excess of AGX51
# T1 construct: 1 μg of purified Id1 (a.a.59-104) and 19.7 ng of AGX51-XL2; made in house; host or cells: E. coli Rosetta 2(DE3)
# T1 sequence (P20067 59-104): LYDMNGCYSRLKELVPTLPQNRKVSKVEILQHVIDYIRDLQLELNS
# Protocol: Covalent binding of AGX51 derivative to Id1. An analog of AGX51 (AGX51-XL2) was used which contains a benzophenone photoreactive moiety. 1 μg of purified Id1 (a.a.59-104) and 19.7 ng of AGX51-XL2 (dissolved in DMSO) were combined, in the dark, and then exposed to UV light for 20 minutes, a negative control without UV exposure was also included. The samples were then run in the dark on a 15% denaturing gel, silver stained according to the manufacturers protocol (SilverQuest Staining Kit, Invitrogen, Grand Island, N.Y., USA) and bands were excised for mass spectrometry as described below.
# In-gel digestion for mass spectrometry. In-gel digestion was performed using the method by Shevchenko et al. (Nat Protoc 1(6):2856-60 (2006)). Briefly, gel bands were excised, washed with 1:1 (Acetonitrile: 100 mM ammonium bicarbonate) for 30 minutes, dehydrated with 100% acetonitrile for 10 minutes until gel slices shrunk and excess acetonitrile was removed and slices were dried in a speed-vac for 10 minutes without heat. Gel slices were reduced with 5 mM DTT for 30 minutes at 56° C. in a thermostated mixer with gentle mixing, removed, allowed to cool to room temperature then alkylated with 11 mM IAA for 30 minutes in the dark. Gel slices were washed with 100 mM ammonium bicarbonate and 100% acetonitrile for 10 minutes each. […]
smiles,measurement,setting,value
"CCC(=O)N(CCC(c1ccc2c(c1)OCO2)c1ccccc1OC)Cc1ccccc1 (racemic) [AGX51, N-(3-(benzo[d][1,3]dioxol-5-yl)-3-(2-methoxyphenyl)propyl)-N-benzylpropionamide]",half-life in the eye,[1],3.7 h
same,maximum concentration in the eye,[1]; after 30 minutes,~4 ng/eye
same,AGX51-XL2 binding to Id1 in presence of competitor,[2],significant decrease in AGX51-XL2 binding to Id1
